Measured values published in US9149791B2, “Water-soluble carbohydrate polyethers” (TRGel, LLC, priority 2008, dated 2015).

Test: Solubility of monomers and polymers in water and organic solvents
Assay type: physicochemical
Source text: The DM trgel monomers as prepared by the methods exemplified in Examples 1-5 above were converted to polymers by the anionic polymerization reaction as illustrated in Reaction Scheme A and the physical properties of homopolymers of differing monomers are presented in Table 1. With reference to Table 1 it should be noted that all of the resulting polymers have very low poly dispersity (Mw/Mn). […] All trgel monomers can be copolymerized randomly or in blocks. Copolymerization of water-soluble and water insoluble monomers results in polymers with controlled solubility in water, including gel forming polymers. Water-soluble polymers are particularly useful in biological applications such as surface protection from non-specific adsorption. The data also illustrates that the glass transition temperature (Tg) of polymers with alkyl substituents decreases as the alkyl chain length increases. […] The DM trgel polymers wherein R=2-methoxyethyl or R=2-(2-methoxyethoxyethyl) show lower critical solution temperature (LCST) behavior.

Solubility in hexane (hexane)	SMILES	Solubility in water
–	COCCOCCOCCOC1C2COC(O2)C2OC12 [Monomer T, 1,6:2,3-dianhydro-4-O-(2-(2-(2-metoxyethoxy)ethoxy)ethyl)-β-D-mannopyranose]	soluble
–	COCCOC1C2COC(O2)C2OC12 [MEDM, 1,6:2,3-dianhydro-4-O-(2-methoxyethyl)-β-D-mannopyranose]	soluble
soluble	CCCCCCCCCCO[C@H]1[C@@H]2O[C@@H]2[C@@H]2OC[C@H]1O2 [DDM, 1,6:2,3-dianhydro-4-O-decyl-β-D-mannopyranose]	–
